Experimental data from PubChem BioAssay AID248 (DTP/NCI, 2004).
Several values for one entry are separate records, joined by “and”; a condition that tells them apart may be missing. Equal values may be shown once. Toxic doses and inconclusive results are not listed. Rule as the data show it: active = T/C of 150% or more; inactive = T/C below 125%.

Test system: L1210 leukemia ip in BDF1 mice, survival T/C
Test: NCI In Vivo Anticancer Drug Screen. Data for tumor model L1210 Leukemia (intraperitoneal) in B6D2F1 (BDF1) mice
Conditions: endpoint: mean survival time, higher = longer survival
Method in brief: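 In this screen, tumor-bearing mice given compound are compared to those given vehicle, and their survival values are reported as a treated-to-control quotient.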

[1] = dose: 25.0 mg/kg/injection, schedule: Q01DX009 (ip), vehicle: Klucel (hydroxypropylcellulose) (HPC)
[2] = dose: 100.0 mg/kg/injection, schedule: Q01DX001 (ip), vehicle: carboxymethylcellulose (CMC)
[3] = dose: 200.0 mg/kg/injection, schedule: Q01DX001 (ip), vehicle: carboxymethylcellulose (CMC)
[4] = dose: 400.0 mg/kg/injection, schedule: Q01DX001 (ip), vehicle: carboxymethylcellulose (CMC)
[5] = dose: 100.0 mg/kg/injection, schedule: Q04DX003 (ip), vehicle: other
[6] = dose: 100.0 mg/kg/injection, schedule: Q01DX009 (ip), vehicle: Klucel (hydroxypropylcellulose) (HPC)
[7] = dose: 200.0 mg/kg/injection, schedule: Q01DX009 (ip), vehicle: Klucel (hydroxypropylcellulose) (HPC)

Measured: T/C

CC(=O)Oc1c(OC(C)=O)c(C=O)c2c(OC(C)=O)c(-c3c(C)cc4c(C(C)C)c(OC(C)=O)c(OC(C)=O)c(C=O)c4c3OC(C)=O)c(C)cc2c1C(C)C
inactive: dose: 6.25 mg/kg/injection, schedule: Q01DX009 (ip), vehicle: Klucel (hydroxypropylcellulose) (HPC) 102 % of control | dose: 12.5 mg/kg/injection, schedule: Q01DX009 (ip), vehicle: Klucel (hydroxypropylcellulose) (HPC) 97 % of control | [1] 100 % of control and 105 % of control | dose: 25.0 mg/kg/injection, schedule: Q04DX003 (ip), vehicle: Klucel (hydroxypropylcellulose) (HPC) 93 % of control | dose: 50.0 mg/kg/injection, schedule: Q04DX003 (ip), vehicle: Klucel (hydroxypropylcellulose) (HPC) 90 % of control | dose: 100.0 mg/kg/injection, schedule: Q04DX003 (ip), vehicle: Klucel (hydroxypropylcellulose) (HPC) 95 % of control and 104 % of control

Cc1c(Cl)cccc1NC(=S)NC(=O)/C=C/c1ccccc1
inactive: dose: 50.0 mg/kg/injection, schedule: Q04DX003 (ip), vehicle: saline with Tween-80 96 % of control | dose: 100.0 mg/kg/injection, schedule: Q01DX001 (ip), vehicle: saline with Tween-80 90 % of control | dose: 100.0 mg/kg/injection, schedule: Q01DX009 (ip), vehicle: saline with Tween-80 98 % of control and 92 % of control | dose: 100.0 mg/kg/injection, schedule: Q04DX002 (ip), vehicle: saline with Tween-80 96 % of control and 87 % of control | dose: 100.0 mg/kg/injection, schedule: Q04DX003 (ip), vehicle: saline with Tween-80 93 % of control and 102 % of control | dose: 200.0 mg/kg/injection, schedule: Q01DX009 (ip), vehicle: saline with Tween-80 95 % of control and 98 % of control | dose: 200.0 mg/kg/injection, schedule: Q04DX002 (ip), vehicle: saline with Tween-80 107 % of control and 116 % of control | dose: 200.0 mg/kg/injection, schedule: Q04DX003 (ip), vehicle: saline with Tween-80 101 % of control | dose: 400.0 mg/kg/injection, schedule: Q01DX001 (ip), vehicle: saline with Tween-80 93 % of control | dose: 400.0 mg/kg/injection, schedule: Q01DX009 (ip), vehicle: saline with Tween-80 95 % of control and 90 % of control | dose: 400.0 mg/kg/injection, schedule: Q04DX002 (ip), vehicle: saline with Tween-80 111 % of control and 112 % of control | dose: 400.0 mg/kg/injection, schedule: Q04DX003 (ip), vehicle: saline with Tween-80 102 % of control and 88 % of control

C=C(C)C(=Nc1ccc(Cl)c(Cl)c1)N(C)C
inactive: dose: 55.0 mg/kg/injection, schedule: Q01DX Z (ip), vehicle: methylcellulose (MC) 98 % of control | dose: 83.0 mg/kg/injection, schedule: Q01DX Z (ip), vehicle: methylcellulose (MC) 93 % of control | dose: 125.0 mg/kg/injection, schedule: Q01DX Z (ip), vehicle: methylcellulose (MC) 93 % of control

Cc1ccc(S(=O)(=O)N2CCCC(O)c3ccccc32)cc1 (stereo unspecified)
inactive: [2] 108 % of control | [3] 106 % of control | [4] 116 % of control

CCN(CC)C(=O)c1cccc(COc2ccc(N3C(N)=NC(N)=NC3(C)C)cc2Cl)c1
inactive: dose: 25.0 mg/kg/injection, schedule: Q01DX009 (ip), vehicle: saline with Tween-80 107 % of control | dose: 50.0 mg/kg/injection, schedule: Q01DX009 (ip), vehicle: saline with Tween-80 107 % of control

CCN(CC)CCCNC(c1ccc(OC)cc1)C(Cl)(Cl)Cl (stereo unspecified)
inactive: dose: 75.0 mg/kg/injection, schedule: Q01DX001 (ip), vehicle: saline 90 % of control | dose: 150.0 mg/kg/injection, schedule: Q01DX001 (ip), vehicle: saline 93 % of control

OCCSc1ccccc1
inactive: [5] 97 % of control | dose: 200.0 mg/kg/injection, schedule: Q04DX003 (ip), vehicle: other 103 % of control | dose: 400.0 mg/kg/injection, schedule: Q04DX003 (ip), vehicle: other 93 % of control

OC1C2CC3C1C3C2c1ccccc1 (stereo unspecified)
inactive: [6] 102 % of control | [7] 91 % of control

CCCCN1CCN2C(=O)N(CC)CCC2C1 (stereo unspecified)
inactive: dose: 25.0 mg/kg/injection, schedule: Q04DX003 (ip), vehicle: saline 91 % of control | dose: 50.0 mg/kg/injection, schedule: Q04DX003 (ip), vehicle: saline 98 % of control | dose: 100.0 mg/kg/injection, schedule: Q01DX001 (ip), vehicle: saline 102 % of control | dose: 100.0 mg/kg/injection, schedule: Q04DX003 (ip), vehicle: saline 116 % of control

CC(C)C/C=N\N=C(N)N
inactive: dose: 15.0 mg/kg/injection, schedule: Q01DX Z (ip), vehicle: saline 103 % of control | dose: 30.0 mg/kg/injection, schedule: Q01DX Z (ip), vehicle: saline 113 % of control | dose: 60.0 mg/kg/injection, schedule: Q01DX Z (ip), vehicle: saline 104 % of control and 90 % of control | dose: 60.0 mg/kg/injection, schedule: Q01DX Z (sc), vehicle: saline 117 % of control | dose: 120.0 mg/kg/injection, schedule: Q01DX Z (ip), vehicle: saline 103 % of control | dose: 120.0 mg/kg/injection, schedule: Q01DX Z (sc), vehicle: saline 110 % of control

Cc1ccc(NC(=O)N(CCCCl)N=O)cc1
inactive: [1] 103 % of control | dose: 50.0 mg/kg/injection, schedule: Q01DX009 (ip), vehicle: Klucel (hydroxypropylcellulose) (HPC) 93 % of control | dose: 59.0 mg/kg/injection, schedule: Q01DX009 (ip), vehicle: carboxymethylcellulose (CMC) 120 % of control | dose: 88.0 mg/kg/injection, schedule: Q01DX009 (ip), vehicle: carboxymethylcellulose (CMC) 117 % of control | [2] 115 % of control | [6] 97 % of control | dose: 118.0 mg/kg/injection, schedule: Q01DX001 (sc), vehicle: olive oil, sesame oil, peanut oil 107 % of control | dose: 133.0 mg/kg/injection, schedule: Q01DX009 (ip), vehicle: carboxymethylcellulose (CMC) 88 % of control | dose: 177.0 mg/kg/injection, schedule: Q01DX001 (ip), vehicle: carboxymethylcellulose (CMC) 100 % of control and 113 % of control | dose: 177.0 mg/kg/injection, schedule: Q01DX001 (sc), vehicle: olive oil, sesame oil, peanut oil 107 % of control | [3] 121 % of control | [7] 97 % of control | dose: 266.0 mg/kg/injection, schedule: Q01DX001 (ip), vehicle: carboxymethylcellulose (CMC) 105 % of control | dose: 266.0 mg/kg/injection, schedule: Q01DX001 (sc), vehicle: olive oil, sesame oil, peanut oil 102 % of control | [4] 113 % of control and 119 % of control | dose: 400.0 mg/kg/injection, schedule: Q01DX001 (sc), vehicle: olive oil, sesame oil, peanut oil 107 % of control

CNC(C(=O)O)c1ccccc1 (stereo unspecified)
inactive: dose: 100.0 mg/kg/injection, schedule: Q01DX001 (ip), vehicle: steriod suspending solution 89 % of control | dose: 200.0 mg/kg/injection, schedule: Q01DX001 (ip), vehicle: steriod suspending solution 97 % of control | dose: 400.0 mg/kg/injection, schedule: Q01DX001 (ip), vehicle: steriod suspending solution 87 % of control

CC(CC(=O)C[N+](=O)[O-])=Nc1ccccc1
inactive: dose: 100.0 mg/kg/injection, schedule: Q04DX002 (ip), vehicle: Klucel (hydroxypropylcellulose) (HPC) 90 % of control | dose: 200.0 mg/kg/injection, schedule: Q04DX002 (ip), vehicle: Klucel (hydroxypropylcellulose) (HPC) 104 % of control | dose: 400.0 mg/kg/injection, schedule: Q04DX002 (ip), vehicle: Klucel (hydroxypropylcellulose) (HPC) 97 % of control

Cn1ncc2c(N)nc(-c3ccccc3)nc21
inactive: [5] 97 % of control
